{"source": "paper PMC9321894", "about": "“Design and Anticancer Properties of New Water-Soluble Ruthenium–Cyclopentadienyl Complexes” (Pharmaceuticals, 2022)", "key": {"HT29 colon cancer cells [1]": {"system": "HT29 colon cancer cells", "set-up": "method as in PMID 21450266, PMID 20200702, PMID 20422091", "settings": "HT29, 72 h; cited from earlier work"}, "[2]": {"system": "A2780 ovarian cancer cells", "set-up": "method as in PMID 21450266, PMID 20200702, PMID 20422091", "settings": "A2780, 72 h; cited from earlier work"}, "[3]": {"system": "MDAMB231 triple-negative breast cancer cells", "set-up": "method as in PMID 21450266, PMID 20200702, PMID 20422091", "settings": "MDAMB231, 72 h; cited from earlier work"}, "Solubility in water": {"experiment": "Solubility in water", "format": "physicochemical", "settings": "in presence of air, 25 °C"}, "[4]": {"experiment": "n-Octanol/water partition coefficient, shake-flask method", "format": "physicochemical", "settings": "room temperature", "protocol": "The lipophilicity of the complexes was measured by the shake-flask method. Distilled water and n-octanol were mixed vigorously for 24 h at 25 °C, to promote solvent saturation in both phases, before the experiments. […] Aliquots of stock solutions were equilibrated with octanol for 4 h in a mechanical shaker. The phase ratio was 2 mL/2 mL (water/n-octanol). The aqueous and octanol layers were carefully separated (by centrifugation at 5000 rpm for 10 min), and UV–vis absorption spectra of the compounds were registered in both phases. The concentration for each sample was determined using the calibration curve. Triplicate experiments have been performed for each complex and the averages were calculated."}, "[5]": {"experiment": "Stability in water in presence of air (UV-vis, 1H and 31P NMR)", "format": "physicochemical", "settings": "for Stability in water, Time / Stability in water, Time (Days): in presence of air, 25 °C, time without hydrolysis", "protocol": "The stability of all the complexes in water was evaluated by ^31P NMR and UV–visible spectroscopies. Generally, a 5 mm NMR tube was charged in the air with the 10 mg of each complex and D2O (0.8 mL). ^1H NMR and ^31P NMR were monitored for four days to evaluate if there was any decomposition product. Decomposition/instability of the compound can be assessed by the disappearance of the NMR signals and/or by the appearance of new signals that could not be assigned to the known complex, beyond the appearance of free mTPPMS phosphine signals. Any eventual changes in the charge transfer bands between ruthenium and ligands were followed by UV–visible in the 300–900 nm range."}, "HT29 colon cancer cells [6]": {"system": "HT29 colon cancer cells", "experiment": "MTT cytotoxicity assay, HT29", "format": "cell-based, human", "settings": "HT29, 72 h; for IC50: mean ± SD n = 3", "protocol": "(§1) The cytotoxic activity of all complexes was screened against A2780 (ovarian, Sigma-Aldrich, Lisboa, Portugal), MDAMB231 (breast, triple negative, ATCC), and HT29 (colon, ATCC) human cancer cells. Cells were grown in RPMI 1640 (A2780) or DMEM containing GlutaMax-I (MDAMB231), or McCoy’s (HT29) supplemented with 10% FBS and 1% penicillin/streptomycin (Invitrogen, Lisboa, Portugal). All cell lines were kept in a CO2 incubator (Heraeus, Hanau, Germany) with 5% CO2 at 37 °C in a humidified atmosphere. Cell viability was measured using the colorimetric MTT (3-(4,5-dimethylthiazol-2-yl)-2,5-diphenyltetrazolium bromide) assay. For the assays, cells were seeded in 200 μL of complete medium in 96-well plates and incubated at 37 °C for 24 h prior to complex treatment to allow cell adherence. The stock solutions in water (20 mM) of the complexes were freshly prepared and used for sequential dilutions in medium within the concentration range of 10^−10–10^−4 M. Cisplatin was also included in this study as a positive control. After careful removal of the medium, […] of a serial dilution of compounds in fresh medium was added to the cells, and incubation was carried out for 72 h at 37 °C. At the end of the treatment, the medium was discarded, and the cells were incubated with […] of an MTT solution in PBS (0.5 mg mL^−1). After 3 h incubation, medium was removed, and DMSO was added to solubilize the purple formazan crystals formed. The absorbance at 570 nm was measured using a plate spectrophotometer (Power Wave Xs, Bio-Tek, Winooski, VT, USA). Each experiment was repeated at least three times and each concentration tested in at least six replicates. The IC50 values were calculated from dose–response curves analyzed with the GraphPad Prism software (version 5.0)."}, "[7]": {"system": "A2780 ovarian cancer cells", "experiment": "MTT cytotoxicity assay, A2780", "format": "cell-based, human", "settings": "A2780, 72 h, mean ± SD n = 3", "protocol": "as §1"}, "[8]": {"system": "MDAMB231 triple-negative breast cancer cells", "experiment": "MTT cytotoxicity assay, MDAMB231", "format": "cell-based, human", "settings": "MDAMB231, 72 h; for IC50: mean ± SD n = 3", "protocol": "as §1"}}, "note": "Like-named read-outs stand apart in the source and are kept apart here. Marks after values point to notes of the source that are not given here.", "data": [{"compound": "N.N.[Cl][Pt][Cl]", "note": "[CisPt, Cisplatin]", "values": [{"measurement": "IC50", "setting": "HT29 colon cancer cells [1]", "result": "7 ± 2", "unit": "µM"}, {"measurement": "IC50", "setting": "[2]", "result": "1.9 ± 0.1", "unit": "µM"}, {"measurement": "IC50", "setting": "[3]", "result": "39 ± 5", "unit": "µM"}]}, {"compound": "O=S(=O)([O-])C(F)(F)F.O=S(=O)([O-])c1cccc(P(c2ccccc2)c2ccccc2)c1.O=S(=O)([O-])c1cccc(P(c2ccccc2)c2ccccc2)c1.[Na+].[Na+].[Ru+2].c1c[nH]cn1.c1cc[cH-]c1", "note": "[Compound 1, [RuCp(mTPPMSNa)2(ImH)][CF3SO3]]", "values": [{"measurement": "S(H2O)", "setting": "Solubility in water", "result": 21.4, "unit": "mg/mL"}]}, {"compound": "NCCCn1ccnc1.O=S(=O)([O-])C(F)(F)F.O=S(=O)([O-])c1cccc(P(c2ccccc2)c2ccccc2)c1.O=S(=O)([O-])c1cccc(P(c2ccccc2)c2ccccc2)c1.[Na+].[Na+].[Ru+2].c1cc[cH-]c1", "note": "[Compound 4, [RuCp(mTPPMSNa)2(3-ApIm)][CF3SO3]]", "values": [{"measurement": "Log Po/w", "setting": "[4]", "result": "4.43 ± 0.03"}, {"measurement": "S(H2O)", "setting": "Solubility in water", "result": 48.6, "unit": "mg/mL"}, {"measurement": "S(H2O)", "setting": "Solubility in water; value in brackets", "result": 0.049, "unit": "M"}, {"measurement": "Time stable in water", "setting": "[5]; aqueous solution", "result": 24, "unit": "h"}, {"measurement": "Stability in water, Time", "setting": "[5]", "result": 1, "unit": "days"}]}, {"compound": "COc1ccc(-n2ccnc2)cc1.O=S(=O)([O-])C(F)(F)F.O=S(=O)([O-])c1cccc(P(c2ccccc2)c2ccccc2)c1.O=S(=O)([O-])c1cccc(P(c2ccccc2)c2ccccc2)c1.[Na+].[Na+].[Ru+2].c1cc[cH-]c1", "note": "[Compound 5, [RuCp(mTPPMSNa)2(4-MpIm)][CF3SO3]]", "values": [{"measurement": "S(H2O)", "setting": "Solubility in water", "result": 28.8, "unit": "mg/mL"}, {"measurement": "S(H2O)", "setting": "Solubility in water; value in brackets", "result": 0.029, "unit": "M"}, {"measurement": "Stability in water, Time", "setting": "[5]", "result": 0.12, "unit": "days"}]}, {"compound": "[RuCp(mTPPMSNa)2(1-BI)][CF3SO3] [Compound 2]", "values": [{"measurement": "S(H2O)", "setting": "Solubility in water", "result": 38.6, "unit": "mg/mL"}, {"measurement": "S(H2O)", "setting": "Solubility in water; value in brackets", "result": 0.039, "unit": "M"}, {"measurement": "Stability in water, Time", "setting": "[5]", "result": 0.25, "unit": "days"}]}, {"compound": "[RuCp(mTPPMSNa)2(1-BuIm)][CF3SO3] [Compound 3]", "values": [{"measurement": "S(H2O)", "setting": "Solubility in water", "result": 42.8, "unit": "mg/mL"}, {"measurement": "S(H2O)", "setting": "Solubility in water; value in brackets", "result": 0.043, "unit": "M"}, {"measurement": "Stability in water, Time", "setting": "[5]", "result": 0.12, "unit": "days"}]}, {"compound": "[RuCp(mTPPMSNa)(dpk)][CF3SO3] [Compound 7]", "values": [{"measurement": "Cytotoxicity (in words)", "setting": "HT29 colon cancer cells [6]", "result": "not cytotoxic"}, {"measurement": "IC50", "setting": "HT29 colon cancer cells [6]", "result": "> 100", "unit": "µM"}, {"measurement": "Log Po/w", "setting": "[4]", "result": "5.95 ± 0.07"}, {"measurement": "S(H2O)", "setting": "Solubility in water", "result": 19.3, "unit": "mg/mL"}, {"measurement": "S(H2O)", "setting": "Solubility in water; value in brackets", "result": 0.019, "unit": "M"}, {"measurement": "IC50", "setting": "[7]", "result": "0.45 ± 0.3", "unit": "µM"}, {"measurement": "Changes in the UV–vis spectra in aqueous solution", "setting": "[5]; over 4 days at 37 °C", "result": "insignificant"}, {"measurement": "Stability in water, Time (Days)", "setting": "[5]", "result": ">4 ^[b] Days"}, {"measurement": "Cytotoxicity (in words)", "setting": "[8]", "result": "not cytotoxic"}, {"measurement": "IC50", "setting": "[8]", "result": "> 100", "unit": "µM"}]}, {"compound": "[RuCp(mTPPMSNa)(pbt)][CF3SO3] [Compound 8]", "values": [{"measurement": "IC50", "setting": "HT29 colon cancer cells [6]", "result": "11.3 ± 2.4", "unit": "µM"}, {"measurement": "S(H2O)", "setting": "Solubility in water", "result": 20.0, "unit": "mg/mL"}, {"measurement": "S(H2O)", "setting": "Solubility in water; value in brackets", "result": 0.02, "unit": "M"}, {"measurement": "IC50", "setting": "[7]", "result": "0.2 ± 0.08", "unit": "µM"}, {"measurement": "Stability in water by NMR (in words)", "setting": "[5]; D2O, 4 days, UV–vis bands decrease due to precipitation", "result": "remained intact without the formation of new species"}, {"measurement": "Stability in water, Time (Days)", "setting": "[5]", "result": ">4 ^[b,c] Days"}, {"measurement": "IC50", "setting": "[8]", "result": "25.4 ± 5", "unit": "µM"}]}]}
